“Also recorded” adds a separate entry of the source. Counter-ions that a name gives are not always drawn.
Legend:
[1] = system: protein transport from the ER to the Golgi complex; settings: Helms and Rothman, 1992; cited from earlier work
BDNF-NLuc [2] = test: LOPAC library screening, NLuc activity in cultured Bdnf^NLuc/+ neurons (HTS); format: cell-based, mouse; settings: 24 hours; for hit status in repeat screening with 4 different plates of cultured neurons (FIG. 5D): different batch of neurons; for hit: NLuc activity in neurons increased to more than 3× standard deviations over the mean: LOPAC compounds 10 μM, DIV7 neurons, FIGS. 5A-5D
Method: We tested the scalability of the Bdnf^NLuc/+ phenotypic assay by screening the 1280-compound Library of Pharmacologically Active Compounds (LOPAC). We dissected out cortices and hippocampi of 8 Bdnf^NLuc/+ embryos at E18.5 from 2 timed pregnant mice, prepared a suspension of dissociated neurons (10,000 cells/80 μl), transferred 40 ml of the suspension into each of eight 50-ml Falcon centrifuge tubes, used the liquid handling device to plate cells from each aliquot of 40-ml cell suspension onto a 384-well plate (80 μl/well), and cultured neurons.
Using 2 sets of 4 plates each of DIV7 neuronal cultures, we removed 20 μl of medium from each well and then added each LOPAC compound in 20 μl of fresh medium to a well to reach a final concentration of 10 μM. LOPAC compounds (320) were added to wells in the middle 20 columns of each plate, while the first 2 and last 2 columns were used for vehicle controls and positive controls. After 24 hours of incubation, we inverted plates to dump culture medium and then measured NLuc activity in neurons. The NLuc activity in each well is normalized to the average of NLuc activities in 1280 compound-containing wells. […] Compounds that increased the NLuc activity to more than 3× standard deviations (3×SDs) over the mean were considered a hit, and in this case, there are 7 hits in the first set of plates (FIG. 5A) and 10 hits in the second set of plates (FIG. 5B), 7 of which are shared. When the average of duplicate assays for each compound is plotted, we identify the same hits from the second set of plates, with the exception of hit 8 (FIG. 5C). To test the repeatability of the assay in different batches of cultured neurons, we repeated the screening with 4 different plates of cultured neurons.
(§1) Compound treatment and LOPAC library screening. Compound treatment or library screening in primary cultures of Bdnf^NLuc/+ mouse neurons on day 7 in vitro (DIV7) was performed by replacing one-quarter of the culture medium with equal volume of compound-containing medium to yield the desired final concentration for each compound. For the library of pharmacologically active compounds (LOPAC, Millipore), compounds in the original source plates were first dosed using a pintool into 384-well plates containing feeding medium to create a secondary source plate with compounds at 40 μM using the Beckman Coulter's Biomek NXP automated liquid handler (Beckman). 1.6% DMSO and 40 μM (+)-Bay K8644 (Sigma) were added to the first two and the last two columns of the secondary source plate as vehicle and positive control, respectively. Compounds in the secondary source plates were then added to culture neurons in the 384-well plates using a Versette liquid handler. Neurons were treated with compounds for 24 hours in a humidified incubator set to 37° C. and 5% CO2. Luciferase activity was detected the next day using Nano-Glo Luciferase Assay System (Promega) according to the manufacturer's instruction. Luminescence intensity was measured using a microplate reader (FLUOstar Omega, BMG LABTECH) at 460 nm.

BDNF-NLuc [3] = test: NLuc activity (BDNF-NLuc levels) in cultured Bdnf^NLuc/+ neurons and media after compound treatment; format: cell-based, mouse
Method: We tested our assay for suitability for HTS by using two positive controls. […] The assay produces a good Z′ for both 10 mM KCl and 10 μM DM (FIGS. 4A-4C) (Zhang et al., 1999). To measure NLuc activities in cells, we can simply invert a plate to dump culture medium and then add the Promega Nano-Glo mix, whereas we must transfer a certain amount of culture medium to a new plate and then add the Promega Nano-Glo mix to measure NLuc activities in media.
Primary cortical/hippocampal cell culture and maintenance. Brains of E18.5 Bdnf^NLuc/+ embryos were collected and placed in ice-cold Ca^2+ and Mg^2+ free Hanks' balanced salt solution (HBSS) supplemented with Penicillin-Streptomycin (Pen/Strep, 50 U/mL, Gibco), 25 mM D-glucose, 1 mM pyruvate, and 20 mM HEPES. Cortices and hippocampi were isolated and digested with papain (~12 U/mL, Worthington) at 37° C. for 20 min. Brain tissues were washed with media containing Neurobasal (Gibco), 4% fetal bovine serum (FBS, HyClone), and Pen/Strep. The tissue was gently triturated and allowed to settle, and the supernatant was filtered through a 40 μm cell strainer. Cells were centrifuged at 420×g for 4 min and resuspended in plating media [Neurobasal, 2% FBS, 2% B27 (Gibco), 2 mM GlutaMAX (Gibco), and Pen/Strep]. 1.0×10^4 or 4.5×10^4 cells were plated onto white Greiner μClear 384-well plate (80 μl/well) or PDL-coated 96-well plate (200 μl/well), respectively. Sixteen hours after plating, 75% of the plating media was replaced by feeding media [Neurobasal, 2% B27, 2 mM GlutaMAX, and Pen/Strep] supplemented with 16 μM 5-fluoro-2′-deoxyuridine (FUdR) to prevent overgrowth of non-neuronal cells. Plating and media changes were performed using a Versette liquid handler (Thermo Fisher Scientific) or an 8-channel pipette for the 384-well and 96-well plates, respectively. Cells were maintained at 37° C. and 5% CO2 incubator.
as §1

Bdnf gene expression = settings: cited from earlier work; for Bdnf gene expression: literature reports, no concentration given
Bdnf mRNA = test: qRT-PCR of Bdnf mRNA and Bdnf mRNA variants in DIV7 Bdnf^NLuc/+ neurons; format: cell-based, mouse; settings: 5 μM, 24 hours
Method: We treated DIV7 Bdnf^NLuc/+ neurons in a 24-well plate with 5 μM GR127935-HCl for 24 hours, isolated total RNA from cultured cells in each well, and ran quantitative RT-PCR (qRT-PCR) to determine levels of total Bdnf mRNA (coding), as well as four major Bdnf mRNA variants (exon 1, exon 2, exon 4, and exon 6).
qRT-PCR validation of HTS hit. DIV7 Bdnf^NLuc/+ neurons were treated in a 24-well plate with 5 μM GR127935-HCl for 24 hours, after which total RNA was isolated from cultured cells in each well and used to perform quantitative RT-PCR (qRT-PCR) to determine the levels of total Bdnf mRNA (coding), as well as four major Bdnf mRNA variants (exon 1, exon 2, exon 4, and exon 6). Levels of Bdnf mRNA variants were quantified using qRT-PCR with 18S rRNA as the internal control.

[4] = DM 2-10 μM added DIV7, measured DIV8, listed as DM
[5] = KCl 10 mM added DIV7, measured DIV8 (24 hours)

C[C@H]1CCC/C=C/[C@@H]2C[C@H](O)C[C@H]2[C@H](O)/C=C/C(=O)O1 [brefeldin A]
protein transport from the ER to the Golgi complex [1]: inhibit protein transport from the ER to the Golgi complex | hit status in repeat screening with 4 different plates of cultured neurons (FIG. 5D) (BDNF-NLuc [2]; 10 μM): rediscovered | hit: NLuc activity in neurons increased to more than 3× standard deviations over the mean (BDNF-NLuc [2]): hits and above dotted line

CC1(C)[C@H](C(=O)O[C@H](C#N)c2cccc(Oc3ccccc3)c2)[C@@H]1C=C(Br)Br [deltamethrin]
levels of BDNF-NLuc in media (NLuc activity) (BDNF-NLuc [3]; [4]): stimulated BDNF production; also recorded: increased | levels of BDNF-NLuc in neurons (NLuc activity) (BDNF-NLuc [3]; [4]): stimulated BDNF production; also recorded: increased | Bdnf gene expression (Bdnf gene expression): stimulate Bdnf gene expression

CCCc1c(-c2ccc(O)cc2)nn(-c2ccc(O)cc2)c1-c1ccc(O)cc1 [1,3,5-Tris(4-hydroxyphenyl)-4-propyl-1H-pyrazole]
hit status in repeat screening with 4 different plates of cultured neurons (FIG. 5D) (BDNF-NLuc [2]; 10 μM): rediscovered | hit: NLuc activity in neurons increased to more than 3× standard deviations over the mean (BDNF-NLuc [2]): above dotted line | hit: NLuc activity in neurons increased to more than 3× standard deviations over the mean (BDNF-NLuc [2]; listed as PPT): hits

CCCCCCCCCCCCCC(=O)O[C@@H]1[C@@H](C)[C@@]2(O)[C@@H](C=C(CO)C[C@]3(O)C(=O)C(C)=C[C@@H]23)[C@@H]2C(C)(C)[C@]12OC(C)=O [phorbol-12-myristate 13-acetate]
hit status in repeat screening with 4 different plates of cultured neurons (FIG. 5D) (BDNF-NLuc [2]; 10 μM): just under the threshold | hit: NLuc activity in neurons increased to more than 3× standard deviations over the mean (BDNF-NLuc [2]): hits and above dotted line | effect on Bay K8644-induced Bdnf gene expression (Bdnf gene expression; Zafra et al., 1992): enhance the effect of Bay K8644 on Bdnf gene expression

C#CCN1C(C)=C(C(=O)OC)C(c2cccc([N+](=O)[O-])c2)C(C(=O)OCC)=C1C (stereo not shown) [N-propargyl nitrendipine]
hit: NLuc activity in neurons increased to more than 3× standard deviations over the mean (BDNF-NLuc [2]): hits and above dotted line

[Cl-].[K+] [KCl]
levels of BDNF-NLuc in media (NLuc activity) (BDNF-NLuc [3]; [5]): elevated; also recorded: increased | levels of BDNF-NLuc in neurons (NLuc activity) (BDNF-NLuc [3]; [5]): elevated; also recorded: increased | Bdnf gene expression in cultured neurons (Bdnf gene expression; KCl 50 mM for 90 min (Ghosh et al., 1994; Tao et al., 2002)): increases Bdnf gene expression | Bdnf gene expression (Bdnf gene expression): stimulates Bdnf gene expression

CCC(C)N(C)C(=O)c1cc2ccccc2c(-c2ccccc2Cl)n1 (stereo not shown) [PK11195]
hit: NLuc activity in neurons increased to more than 3× standard deviations over the mean (BDNF-NLuc [2]): above dotted line

COc1ccc(-c2ccc(=N)n(CCCC(=O)O)n2)cc1 [gabazine]
hit status on the average of duplicate assays (FIG. 5C) (BDNF-NLuc [2]; 10 μM, average of 2 sets of plates): exception | hit: NLuc activity in neurons increased to more than 3× standard deviations over the mean (BDNF-NLuc [2]): above dotted line

COc1ccc(NC(=O)c2ccc(-c3ccc(-c4noc(C)n4)cc3C)cc2)cc1N1CCN(C)CC1 [GR127935-HCl]
Bdnf mRNA variant exon 1 (Bdnf mRNA): stimulating transcription | Bdnf mRNA variant exon 2 (Bdnf mRNA): stimulating transcription | Bdnf mRNA variant exon 4 (Bdnf mRNA): stimulating transcription | total Bdnf mRNA (coding) levels (Bdnf mRNA; 18S rRNA internal control): elevated Bdnf mRNA levels | hit status in repeat screening with 4 different plates of cultured neurons (FIG. 5D) (BDNF-NLuc [2]; 10 μM): rediscovered | hit: NLuc activity in neurons increased to more than 3× standard deviations over the mean (BDNF-NLuc [2]): above dotted line | hit: NLuc activity in neurons increased to more than 3× standard deviations over the mean (BDNF-NLuc [2]; listed as GR127935 hydrochloride hydrate): hits

COC(=O)C1=C(C)NC(C)=C([N+](=O)[O-])C1c1ccccc1C(F)(F)F (stereo not shown) [Bay K8644]
BDNF levels (NLuc activity) (BDNF-NLuc [3]; Bay K8644 10 μM, DIV7, 24 hours, 3 batches of cultured neurons): increased BDNF levels | hit status in repeat screening with 4 different plates of cultured neurons (FIG. 5D) (BDNF-NLuc [2]; 10 μM): rediscovered | hit: NLuc activity in neurons increased to more than 3× standard deviations over the mean (BDNF-NLuc [2]): hits and above dotted line | Bdnf gene expression (Bdnf gene expression): stimulates Bdnf gene expression

— patent US20260231914A1, “BRAIN-DERIVED NEUROTROPHIC FACTOR-NANO LUCIFERASE TRANSGENIC RODENTS AND METHODS OF USE THEREOF” (University of Florida Research Foundation, Incorporated, priority 2023, published 2026)
